Assay results reported in patent US6355799B1, “Substituted benzene compounds, process for their preparation, and herbicidal and defoliant compositions containing them” (ISK Americas Incorporated, priority 1997, dated 2002).

Columns and labels:
Assay type in all cases: in vivo
[1] = system: upland rice (Oryza sp., var. Tebonnet, RICE); assay: Post-emerge test, crop safety; conditions: post-emerge, crop damage rating 0-100 at 14 days after application
How it was run: (§1)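 Compounds in acetone were track-sprayed at 15-1000 g ai/ha (187 l/ha) on sandy loam pots: pre-emerge one day after seeding, post-emerge at 2-3 leaf stage with 0.25% v/v non-ionic surfactant. Phytotoxicity was rated 14 days later on a 0 (no damage) to 100 (complete death) scale.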

[2] = system: field corn (Zea mays L., var. Dekalb 535, CORN); assay: Post-emerge test, crop safety; conditions: post-emerge, crop damage rating 0-100 at 14 days after application
How it was run: as §1

[3] = system: upland rice (Oryza sp., var. Tebonnet, RICE); assay: Pre-emerge test, crop safety; conditions: crop damage, pre-emerge, phytotoxicity rating 0-100 at 14 days after application
How it was run: as §1

[4] = system: field corn (Zea mays L., var. Dekalb 535, CORN); assay: Pre-emerge test, crop safety; conditions: crop damage, pre-emerge, phytotoxicity rating 0-100 at 14 days after application
How it was run: as §1

[5] = system: lambsquarters (Chenopodium album, CHEAL); assay: Post-emerge test, greenhouse herbicide activity screening; conditions: post-emerge, phytotoxicity rating 0-100 at 14 days after application
How it was run: (§2)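 Sandy loam pots; pre-emerge: sown 1 d pre-spray, surface-watered after, then bottom-watered. Post-emerge: sown 8–21 d before, 2–3 leaf stage, + 0.25% v/v NIS, bottom-watered. Acetone, 187 l/ha track spray, 15–1000 g ai/ha. 0–100 injury score, day 14.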

[6] = system: large crabgrass (Digitaria sanguinalis, DIGSA); assay: as above; conditions: post-emerge, phytotoxicity rating 0-100 at 14 days after application
How it was run: as §2

[7] = system: johnsongrass (Sorghum halepense, SORHA); assay: as above; conditions: post-emerge, phytotoxicity rating 0-100 at 14 days after application
How it was run: as §2

[8] = system: ivyleaf morningglory (Ipomoea hederacea, IPOHE); assay: as above; conditions: post-emerge, phytotoxicity rating 0-100 at 14 days after application
How it was run: as §2

[9] = system: velvetleaf (Abutilon theophrasti, ABUTH); assay: as above; conditions: post-emerge, phytotoxicity rating 0-100 at 14 days after application
How it was run: as §2

[10] = system: redroot pigweed (Amaranthus retroflexus, AMARE); assay: as above; conditions: post-emerge, phytotoxicity rating 0-100 at 14 days after application
How it was run: as §2

[11] = system: green foxtail (Setaria viridis, SETVI); assay: as above; conditions: post-emerge, phytotoxicity rating 0-100 at 14 days after application
How it was run: as §2

[12] = system: barnyardgrass (Echinochloa crus-galli, ECHCG); assay: as above; conditions: post-emerge, phytotoxicity rating 0-100 at 14 days after application
How it was run: as §2

[13] = system: sicklepod (Cassia obtusifolia, CASOB); assay: as above; conditions: post-emerge, phytotoxicity rating 0-100 at 14 days after application
How it was run: as §2

[14] = system: redroot pigweed (Amaranthus retroflexus, AMARE); assay: Pre-emerge test, greenhouse herbicide activity screening; conditions: pre-emerge, phytotoxicity rating 0-100 at 14 days after application
How it was run: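 Compounds in acetone were track-sprayed at 187 l/ha, 15–1000 g ai/ha, onto sandy loam pots. Pre-emerge seeds were sown one day before spraying, with surface watering afterwards. Post-emerge plants were at the 2–3 leaf stage and sprayed with 0.25% v/v non-ionic surfactant. Injury was rated 0–100 at 14 days.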

[15] = system: lambsquarters (Chenopodium album, CHEAL); assay: as above; conditions: pre-emerge, phytotoxicity rating 0-100 at 14 days after application
How it was run: as §1

[16] = system: large crabgrass (Digitaria sanguinalis, DIGSA); assay: as above; conditions: pre-emerge, phytotoxicity rating 0-100 at 14 days after application
How it was run: as §1

[17] = system: johnsongrass (Sorghum halepense, SORHA); assay: as above; conditions: pre-emerge, phytotoxicity rating 0-100 at 14 days after application
How it was run: as §1

[18] = system: ivyleaf morningglory (Ipomoea hederacea, IPOHE); assay: as above; conditions: pre-emerge, phytotoxicity rating 0-100 at 14 days after application
How it was run: as §1

[19] = system: velvetleaf (Abutilon theophrasti, ABUTH); assay: as above; conditions: pre-emerge, phytotoxicity rating 0-100 at 14 days after application
How it was run: as §1

[20] = system: green foxtail (Setaria viridis, SETVI); assay: as above; conditions: pre-emerge, phytotoxicity rating 0-100 at 14 days after application
How it was run: as §1

[21] = system: barnyardgrass (Echinochloa crus-galli, ECHCG); assay: as above; conditions: pre-emerge, phytotoxicity rating 0-100 at 14 days after application
How it was run: as §1

[22] = system: sicklepod (Cassia obtusifolia, CASOB); assay: as above; conditions: pre-emerge, phytotoxicity rating 0-100 at 14 days after application
How it was run: as §1

## O=C(Nc1cc(Cl)ccc1-n1c(=O)n2n(c1=O)CCCC2)c1ccc2ccccc2c1 [9-19]
[1]; 63 g ai/ha
  Post-emerge Herbicidal Activity RICE: 15
[1]; 250 g ai/ha
  Post-emerge Herbicidal Activity RICE: 25
[2]; 63 g ai/ha
  Post-emerge Herbicidal Activity CORN: 10
[2]; 250 g ai/ha
  Post-emerge Herbicidal Activity CORN: 10
[3]; rate 63 g ai/ha
  Pre-emerge Herbicidal Activity RICE: 30
[3]; rate 250 g ai/ha
  Pre-emerge Herbicidal Activity RICE: 50
[4]; rate 63 g ai/ha
  Pre-emerge Herbicidal Activity CORN: 0
[4]; rate 250 g ai/ha
  Pre-emerge Herbicidal Activity CORN: 0
[5]; 63 g ai/ha
  Post-emerge Herbicidal Activity CHEAL: 100
[5]; 250 g ai/ha
  Post-emerge Herbicidal Activity CHEAL: 100
[6]; 63 g ai/ha
  Post-emerge Herbicidal Activity DIGSA: 0
[6]; 250 g ai/ha
  Post-emerge Herbicidal Activity DIGSA: 10
[7]; 63 g ai/ha
  Post-emerge Herbicidal Activity SORHA: 0
[7]; 250 g ai/ha
  Post-emerge Herbicidal Activity SORHA: 0
[8]; 63 g ai/ha
  Post-emerge Herbicidal Activity IPOHE: 75
[8]; 250 g ai/ha
  Post-emerge Herbicidal Activity IPOHE: 90
[9]; 63 g ai/ha
  Post-emerge Herbicidal Activity ABUTH: 100
[9]; 250 g ai/ha
  Post-emerge Herbicidal Activity ABUTH: 100
[10]; 63 g ai/ha
  Post-emerge Herbicidal Activity AMARE: 80
[10]; 250 g ai/ha
  Post-emerge Herbicidal Activity AMARE: 98
[11]; 63 g ai/ha
  Post-emerge Herbicidal Activity SETVI: 10
[11]; 250 g ai/ha
  Post-emerge Herbicidal Activity SETVI: 20
[12]; 63 g ai/ha
  Post-emerge Herbicidal Activity ECHCG: 0
[12]; 250 g ai/ha
  Post-emerge Herbicidal Activity ECHCG: 10
[13]; 63 g ai/ha
  Post-emerge Herbicidal Activity CASOB: 80
[13]; 250 g ai/ha
  Post-emerge Herbicidal Activity CASOB: 95
[14]; rate 63 g ai/ha
  Pre-emerge Herbicidal Activity AMARE: 100
[14]; rate 250 g ai/ha
  Pre-emerge Herbicidal Activity AMARE: 100
[15]; rate 63 g ai/ha
  Pre-emerge Herbicidal Activity CHEAL: 100
[15]; rate 250 g ai/ha
  Pre-emerge Herbicidal Activity CHEAL: 100
[16]; rate 63 g ai/ha
  Pre-emerge Herbicidal Activity DIGSA: 0
[16]; rate 250 g ai/ha
  Pre-emerge Herbicidal Activity DIGSA: 80
[17]; rate 63 g ai/ha
  Pre-emerge Herbicidal Activity SORHA: 0
[17]; rate 250 g ai/ha
  Pre-emerge Herbicidal Activity SORHA: 20
[18]; rate 63 g ai/ha
  Pre-emerge Herbicidal Activity IPOHE: 30
[18]; rate 250 g ai/ha
  Pre-emerge Herbicidal Activity IPOHE: 0
[19]; rate 63 g ai/ha
  Pre-emerge Herbicidal Activity ABUTH: 100
[19]; rate 250 g ai/ha
  Pre-emerge Herbicidal Activity ABUTH: 100
[20]; rate 63 g ai/ha
  Pre-emerge Herbicidal Activity SETVI: 0
[20]; rate 250 g ai/ha
  Pre-emerge Herbicidal Activity SETVI: 60
[21]; rate 63 g ai/ha
  Pre-emerge Herbicidal Activity ECHCG: 0
[21]; rate 250 g ai/ha
  Pre-emerge Herbicidal Activity ECHCG: 0
[22]; rate 63 g ai/ha
  Pre-emerge Herbicidal Activity CASOB: 0
[22]; rate 250 g ai/ha
  Pre-emerge Herbicidal Activity CASOB: 20
